Our source for the Ki values is ChEMBL document CHEMBL1129307, “5-(4-Chlorophenyl)-4-methyl-3-(1-(2-phenylethyl)piperidin-4-yl)isoxazole: a potent, selective antagonist at human cloned dopamine D4 receptors” (J Med Chem, 1996).

The target of one experiment is D(3) dopamine receptor (Homo sapiens, UniProt P35462). As to the kind of experiment: biochemical.
In the next experiment the target is T1, D(4) dopamine receptor (Homo sapiens, UniProt P21917).
T1 sequence (P21917 whole entry): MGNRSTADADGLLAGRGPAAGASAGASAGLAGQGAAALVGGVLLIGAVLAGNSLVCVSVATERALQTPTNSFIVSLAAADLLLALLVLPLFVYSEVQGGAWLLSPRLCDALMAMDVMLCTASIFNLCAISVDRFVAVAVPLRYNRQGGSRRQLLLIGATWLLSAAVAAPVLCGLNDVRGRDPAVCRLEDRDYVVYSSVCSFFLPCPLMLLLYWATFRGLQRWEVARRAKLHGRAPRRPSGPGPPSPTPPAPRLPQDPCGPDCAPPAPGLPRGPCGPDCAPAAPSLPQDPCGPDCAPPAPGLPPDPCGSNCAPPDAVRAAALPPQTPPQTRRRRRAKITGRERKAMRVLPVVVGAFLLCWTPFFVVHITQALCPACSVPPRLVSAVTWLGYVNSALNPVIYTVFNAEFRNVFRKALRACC
As to the kind of experiment: biochemical.

Each structure is given as a SMILES string. A value given as a limit tells only on which side of the number the result lay.

Chain of D(3) dopamine receptor (P35462 whole entry): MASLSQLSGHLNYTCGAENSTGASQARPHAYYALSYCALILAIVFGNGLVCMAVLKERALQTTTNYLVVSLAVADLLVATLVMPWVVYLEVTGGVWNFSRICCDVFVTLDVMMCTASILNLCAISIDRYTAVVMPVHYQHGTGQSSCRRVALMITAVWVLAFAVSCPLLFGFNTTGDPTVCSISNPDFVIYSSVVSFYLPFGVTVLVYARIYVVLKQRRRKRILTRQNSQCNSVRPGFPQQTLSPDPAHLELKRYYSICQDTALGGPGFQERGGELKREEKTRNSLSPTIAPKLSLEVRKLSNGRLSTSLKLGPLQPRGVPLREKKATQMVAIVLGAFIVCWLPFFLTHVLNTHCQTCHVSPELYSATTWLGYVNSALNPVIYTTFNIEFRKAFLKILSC
Description for D(3) dopamine receptor: Displacement of [3H]spiperone from human Dopamine receptor D3 expressed in CHO cells
Description for D(4) dopamine receptor: Displacement of [3H]spiperone from human Dopamine receptor D4 expressed in HEK293 cells

The Ki is a dissociation constant, usually derived from enzyme kinetics or from competition with a known ligand. Low values mean tighter binding, high ones weaker binding. On to `Cc1c(-c2ccc(Cl)cc2)noc1C1CCN(CCc2ccccc2)CC1`, for which the inhibition constant Ki on D(3) dopamine receptor was determined as 480 nM; on D(4) dopamine receptor, 2.5 nM.

With `Clc1ccc(CN2CCC(c3cc(-c4ccc(Cl)cc4)on3)CC2)cc1`, the values for the Ki on D(3) dopamine receptor and on D(4) dopamine receptor were 430 nM and 44 nM, respectively.

With `Cc1c(C2CCN(CCc3ccccc3)CC2)n[nH]c1-c1ccc(Cl)cc1`, the values for the Ki on D(3) dopamine receptor and at D(4) dopamine receptor were 1200 nM and 1.2 nM, respectively.

In the case of `Clc1ccc(CN2CCC(c3cc(-c4ccc(Cl)cc4)[nH]n3)CC2)cc1`, the Ki at D(3) dopamine receptor turned out to be 820 nM; on D(4) dopamine receptor it was 61 nM.

Consider `Clc1ccc(CN2CCC(c3cc(-c4ccc(Cl)cc4)no3)CC2)cc1`, for which the Ki turned out to be 81 nM on D(3) dopamine receptor and 3.6 nM on D(4) dopamine receptor.

Regarding `Clc1ccc(-c2cc(C3CCN(CCc4ccccc4)CC3)[nH]n2)cc1`, the Ki on D(3) dopamine receptor was above 4000 nM; at D(4) dopamine receptor, 5.5 nM.
